Laboratory results: PubChem BioAssay (NCI)
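Where inhibition never reached the appropriate level, the endpoint shown equals the highest concentration tested. Otherwise, values were interpolated linearly from a five-concentration, 48-hour dose response in 96-well plates. GI50 is the concentration that inhibits growth by half. Definition used: TGI = concentration required for complete inhibition of growth.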

How the values were obtained:
Experiment in all cases: NCI tumour cell line growth inhibition, 48 h
[1] = system: SK-MEL-28 melanoma
[2] = system: HOP-92 NSCLC
[3] = system: SF-539 CNS
[4] = system: A549 NSCLC
[5] = system: COLO 205 colon
[6] = system: MDA-MB-468 breast
[7] = system: M14 melanoma
[8] = system: UACC-62 melanoma
[9] = system: RXF 393 renal
[10] = system: U251 CNS
[11] = system: PC-3 prostate
[12] = system: SF-295 CNS
[13] = system: SF-268 CNS
[14] = system: 786-0 renal
[15] = system: HCT-116 colon
[16] = system: NCI-H226 lung
[17] = system: K-562 leukemia
[18] = system: IGROV1 ovarian
[19] = system: MCF7 breast
[20] = system: HL-60(TB) leukemia
[21] = system: UO-31 renal
[22] = system: MALME-3M melanoma
[23] = system: NCI-H23 lung
[24] = system: NCI/ADR-RES ovarian
[25] = system: ACHN renal
[26] = system: BT-549 breast
[27] = system: OVCAR-5 ovarian
[28] = system: UACC-257 melanoma
[29] = system: NCI-H522 lung
[30] = system: CAKI-1 renal
[31] = system: LOX IMVI melanoma
[32] = system: A498 renal
[33] = system: KM12 colon
[34] = system: NCI-H460 lung
[35] = system: HCT-15 colon
[36] = system: RPMI-8226 leukemia
[37] = system: OVCAR-4 ovarian
[38] = system: SNB-75 CNS
[39] = system: OVCAR-8 ovarian
[40] = system: SK-MEL-5 melanoma
[41] = system: SW-620 colon
[42] = system: EKVX NSCLC
[43] = system: HCC-2998 colon
[44] = system: SK-MEL-2 melanoma
[45] = system: MDA-MB-435
[46] = system: DU-145 prostate
[47] = system: HS 578T breast
[48] = system: SN12C renal
[49] = system: SK-OV-3 ovarian
[50] = system: HOP-62 NSCLC
[51] = system: MDA-MB-231 breast
[52] = system: MOLT-4 leukemia
[53] = system: T-47D breast
[54] = system: TK-10 renal
[55] = system: CCRF-CEM leukemia
[56] = system: OVCAR-3 ovarian
[57] = system: SNB-19 CNS

Question: For `Cc1occc1C(=O)NN1C(=O)/C(=C/C=C/c2ccc([N+](=O)[O-])o2)SC1=S`, which GI50 [1] is on record?
Answer: 1.85 µM

Question: And the TGI [1]?
Answer: 3.63 µM

Question: And the GI50 [2]?
Answer: 2.56 µM

Question: What about the TGI [2] of the same compound?
Answer: 5.59 µM

Question: And the GI50 [3]?
Answer: 1.72 µM

Question: And the TGI [3]?
Answer: 3.3 µM

Question: And the GI50 [4]?
Answer: 4.82 µM

Question: What about the TGI [4] of the same compound?
Answer: 21.1 µM

Question: What about the GI50 [5] of the same compound?
Answer: 1.62 µM

Question: What about the TGI [5] of the same compound?
Answer: 3.23 µM

Question: What about the GI50 [6] of the same compound?
Answer: 1.62 µM

Question: And the TGI [6]?
Answer: 3.27 µM

Question: And the GI50 [7]?
Answer: 1.51 µM

Question: And the TGI [7]?
Answer: 2.93 µM

Question: And the GI50 [8]?
Answer: 1.36 µM

Question: And the TGI [8]?
Answer: 2.77 µM

Question: What about the GI50 [9] of the same compound?
Answer: 1.71 µM

Question: And the TGI [9]?
Answer: 3.2 µM

Question: What about the GI50 [10] of the same compound?
Answer: 1.89 µM

Question: What about the TGI [10] of the same compound?
Answer: 4.62 µM

Question: And the GI50 [11]?
Answer: 2.79 µM

Question: And the TGI [11]?
Answer: 10.2 µM

Question: And the GI50 [12]?
Answer: 6.19 µM

Question: And the TGI [12]?
Answer: 18.8 µM

Question: What about the GI50 [13] of the same compound?
Answer: 2.49 µM

Question: And the TGI [13]?
Answer: 6.95 µM

Question: And the GI50 [14]?
Answer: 2.01 µM

Question: What about the TGI [14] of the same compound?
Answer: 4.19 µM

Question: And the GI50 [15]?
Answer: 1.06 µM

Question: What about the TGI [15] of the same compound?
Answer: 2.54 µM

Question: What about the GI50 [16] of the same compound?
Answer: 2.02 µM

Question: What about the TGI [16] of the same compound?
Answer: 5.09 µM

Question: And the GI50 [17]?
Answer: 0.586 µM

Question: And the TGI [17]?
Answer: 7.28 µM

Question: And the GI50 [18]?
Answer: 1.85 µM

Question: What about the TGI [18] of the same compound?
Answer: 3.56 µM

Question: What about the GI50 [19] of the same compound?
Answer: 1.5 µM

Question: What about the TGI [19] of the same compound?
Answer: 5 µM

Question: And the GI50 [20]?
Answer: 2.64 µM

Question: And the TGI [20]?
Answer: 11.6 µM

Question: And the GI50 [21]?
Answer: 1.51 µM

Question: And the TGI [21]?
Answer: 2.96 µM

Question: And the GI50 [22]?
Answer: 1.5 µM

Question: What about the TGI [22] of the same compound?
Answer: 3.23 µM

Question: And the GI50 [23]?
Answer: 1.78 µM

Question: What about the TGI [23] of the same compound?
Answer: 3.6 µM

Question: And the GI50 [24]?
Answer: 2.55 µM

Question: And the TGI [24]?
Answer: 7.46 µM

Question: And the GI50 [25]?
Answer: 1.73 µM

Question: And the TGI [25]?
Answer: 3.23 µM

Question: And the GI50 [26]?
Answer: 1.77 µM

Question: And the TGI [26]?
Answer: 3.29 µM

Question: What about the GI50 [27] of the same compound?
Answer: 1.86 µM

Question: And the TGI [27]?
Answer: 3.68 µM

Question: And the GI50 [28]?
Answer: 2.05 µM

Question: What about the TGI [28] of the same compound?
Answer: 5.1 µM

Question: And the GI50 [29]?
Answer: 1.65 µM

Question: What about the TGI [29] of the same compound?
Answer: 3.21 µM

Question: And the GI50 [30]?
Answer: 1.82 µM

Question: What about the TGI [30] of the same compound?
Answer: 4.01 µM

Question: What about the GI50 [31] of the same compound?
Answer: 1.26 µM

Question: And the TGI [31]?
Answer: 2.55 µM

Question: What about the GI50 [32] of the same compound?
Answer: 19.4 µM

Question: And the TGI [32]?
Answer: 33.6 µM

Question: What about the GI50 [33] of the same compound?
Answer: 2.22 µM

Question: And the TGI [33]?
Answer: 6.21 µM

Question: And the GI50 [34]?
Answer: 1.79 µM

Question: And the TGI [34]?
Answer: 3.66 µM

Question: And the GI50 [35]?
Answer: 0.645 µM

Question: What about the TGI [35] of the same compound?
Answer: 2.24 µM

Question: What about the GI50 [36] of the same compound?
Answer: 1.67 µM

Question: And the TGI [36]?
Answer: 7.51 µM

Question: And the GI50 [37]?
Answer: 2.76 µM

Question: And the TGI [37]?
Answer: 10.1 µM

Question: What about the GI50 [38] of the same compound?
Answer: 1.66 µM

Question: And the TGI [38]?
Answer: 7.48 µM

Question: What about the GI50 [39] of the same compound?
Answer: 2.5 µM

Question: What about the TGI [39] of the same compound?
Answer: 10.9 µM

Question: What about the GI50 [40] of the same compound?
Answer: 1.64 µM

Question: And the TGI [40]?
Answer: 3.13 µM

Question: What about the GI50 [41] of the same compound?
Answer: 1.11 µM

Question: And the TGI [41]?
Answer: 2.65 µM

Question: What about the GI50 [42] of the same compound?
Answer: 1.83 µM

Question: And the TGI [42]?
Answer: 4 µM

Question: And the GI50 [43]?
Answer: 1.89 µM

Question: What about the TGI [43] of the same compound?
Answer: 3.69 µM

Question: And the GI50 [44]?
Answer: 1.73 µM

Question: What about the TGI [44] of the same compound?
Answer: 3.56 µM

Question: What about the GI50 [45] of the same compound?
Answer: 1.93 µM

Question: What about the TGI [45] of the same compound?
Answer: 4.26 µM

Question: What about the GI50 [46] of the same compound?
Answer: 3.11 µM

Question: What about the TGI [46] of the same compound?
Answer: 10.1 µM

Question: And the GI50 [47]?
Answer: 2.44 µM

Question: And the TGI [47]?
Answer: 7.46 µM

Question: What about the GI50 [48] of the same compound?
Answer: 1.65 µM

Question: And the TGI [48]?
Answer: 3.96 µM

Question: What about the GI50 [49] of the same compound?
Answer: 5.82 µM

Question: And the TGI [49]?
Answer: 18.7 µM

Question: What about the GI50 [50] of the same compound?
Answer: 3.37 µM

Question: And the TGI [50]?
Answer: 11.7 µM

Question: What about the GI50 [51] of the same compound?
Answer: 1.51 µM

Question: What about the TGI [51] of the same compound?
Answer: 2.97 µM

Question: What about the GI50 [52] of the same compound?
Answer: 2.13 µM

Question: And the TGI [52]?
Answer: 8.32 µM

Question: And the GI50 [53]?
Answer: 2.17 µM

Question: And the TGI [53]?
Answer: 5.57 µM

Question: And the GI50 [54]?
Answer: 3.47 µM

Question: What about the TGI [54] of the same compound?
Answer: 9.99 µM

Question: What about the GI50 [55] of the same compound?
Answer: 1.41 µM

Question: What about the TGI [55] of the same compound?
Answer: 8.47 µM

Question: And the GI50 [56]?
Answer: 1.59 µM

Question: And the TGI [56]?
Answer: 3.07 µM

Question: And the GI50 [57]?
Answer: 5.47 µM

Question: What about the TGI [57] of the same compound?
Answer: 18 µM
